± gives the standard deviation of the averaged measurements.
Columns and labels:
SALINOMYCIN = compound: CC[C@@H](C(=O)[C@@H](C)[C@@H](O)[C@H](C)[C@@H]1O[C@@H]([C@@H](CC)C(=O)O)CC[C@@H]1C)[C@H]1O[C@]2(C=C[C@@H](O)[C@]3(CC[C@@](C)([C@H]4CC[C@](O)(CC)[C@H](C)O4)O3)O2)[C@H](C)C[C@@H]1C [SALINOMYCIN]; test: surviving fraction relative to DMSO-only wells; higher = less growth inhibition; details: exposure time: 5 days
Procedure, shortened: (§1)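 Surviving fraction is CellTiter-Glo luminescence divided by the median of wells given DMSO only. For this, log-phase tumour cell lines went into 384-well plates at 250–500 cells per well and, 24 hours later, into five days of continuous inhibitor exposure at 0.5, 1, 5, 10, 50, 100, 500 and 1000 nM. Lines were screened three times and retained only if replicate Pearson r >0.7 and median Z' >0.3.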

NUTLIN3 = compound: COc1ccc(C2=N[C@@H](c3ccc(Cl)cc3)[C@@H](c3ccc(Cl)cc3)N2C(=O)N2CCNC(=O)C2)c(OC(C)C)c1 [NUTLIN3]; test: as above; details: exposure time: 5 days
Procedure, shortened: as §1

Test System	surviving fraction (SALINOMYCIN; 0.5 nM)	surviving fraction (SALINOMYCIN; 1 nM)	surviving fraction (SALINOMYCIN; 5 nM)	surviving fraction (SALINOMYCIN; 10 nM)	surviving fraction (SALINOMYCIN; 50 nM)	surviving fraction (SALINOMYCIN; 100 nM)	surviving fraction (SALINOMYCIN; 500 nM)	surviving fraction (SALINOMYCIN; 1000 nM)	surviving fraction (NUTLIN3; 0.5 nM)	surviving fraction (NUTLIN3; 1 nM)	surviving fraction (NUTLIN3; 5 nM)	surviving fraction (NUTLIN3; 10 nM)	surviving fraction (NUTLIN3; 50 nM)	surviving fraction (NUTLIN3; 100 nM)	surviving fraction (NUTLIN3; 500 nM)	surviving fraction (NUTLIN3; 1000 nM)
SG27 HEADNECK	1.03 ± 0.099	1.09 ± 0.17	0.997 ± 0.11	0.921 ± 0.094	1.12 ± 0.08	1.1 ± 0.074	0.249 ± 0.028	0.184 ± 0.015	1.01 ± 0.02	1.06 ± 0.12	0.998 ± 0.17	1.19 ± 0.19	0.998 ± 0.064	1 ± 0.062	0.788 ± 0.11	0.668 ± 0.06
SG28 HEADNECK	1.05 ± 0.098	1.08 ± 0.06	1.07 ± 0.16	0.835 ± 0.1	0.835 ± 0.077	0.762 ± 0.046	0.498 ± 0.068	0.323 ± 0.037	1.13 ± 0.065	1.03 ± 0.14	1.02 ± 0.12	1.07 ± 0.12	1.03 ± 0.14	1.02 ± 0.085	1.01 ± 0.11	0.919 ± 0.1
SG31 HEADNECK	1.08 ± 0.15	1.12 ± 0.036	1.07 ± 0.089	0.888 ± 0.097	0.924 ± 0.048	0.863 ± 0.093	0.413 ± 0.033	0.317 ± 0.047	1.08 ± 0.067	1.05 ± 0.2	1.06 ± 0.12	0.921 ± 0.035	0.854 ± 0.13	1.11 ± 0.23	0.906 ± 0.038	0.92 ± 0.057
SG32 HEADNECK	0.944 ± 0.068	1.13 ± 0.41	0.951 ± 0.13	0.729 ± 0.054	0.921 ± 0.13	0.636 ± 0.016	0.133 ± 0.01	0.054 ± 0.0044	1.27 ± 0.11	1.14 ± 0.29	1 ± 0.13	1.12 ± 0.095	1.18 ± 0.035	1.31 ± 0.45	0.895 ± 0.29	0.61 ± 0.07
SG43 HEADNECK	0.921 ± 0.12	1.2 ± 0.14	0.776 ± 0.14	1.05 ± 0.13	0.954 ± 0.14	1.16 ± 0.13	0.459 ± 0.023	0.285 ± 0.11	1.11 ± 0.1	0.915 ± 0.071	0.928 ± 0.11	0.772 ± 0.064	0.877 ± 0.14	0.778 ± 0.24	0.806 ± 0.24	0.565 ± 0.1
SIHA CERVIX	0.875 ± 0.013	0.878 ± 0.011	0.935 ± 0.073	0.967 ± 0.047	0.9557 ± 0.0072	0.928 ± 0.052	0.513 ± 0.038	0.419 ± 0.014	1.05 ± 0.062	0.991 ± 0.053	1.01 ± 0.12	1.07 ± 0.071	1.05 ± 0.073	1.2 ± 0.05	1.11 ± 0.15	1.14 ± 0.11
SJSA1 BONE	1 ± 0.033	0.992 ± 0.011	1.02 ± 0.041	1 ± 0.033	1.02 ± 0.023	0.966 ± 0.023	0.404 ± 0.041	0.27 ± 0.043	1 ± 0.048	0.997 ± 0.041	1.05 ± 0.053	1 ± 0.064	1.03 ± 0.023	1.04 ± 0.02	0.823 ± 0.011	0.568 ± 0.027
SKBR3 BREAST	1 ± 0.13	1.09 ± 0.2	0.927 ± 0.12	0.997 ± 0.051	1.05 ± 0.12	0.98 ± 0.17	0.238 ± 0.025	0.109 ± 0.015	0.795 ± 0.15	1.01 ± 0.2	0.869 ± 0.1	0.844 ± 0.18	0.952 ± 0.14	0.8987 ± 0.0035	0.91 ± 0.029	0.885 ± 0.077
SNU475 LIVER	0.974 ± 0.027	0.86 ± 0.032	0.952 ± 0.029	0.423 ± 0.0047	1.04 ± 0.036	0.871 ± 0.033	0.46 ± 0.046	0.31 ± 0.018	1.02 ± 0.066	0.981 ± 0.017	0.988 ± 0.045	0.984 ± 0.032	1 ± 0.028	1.03 ± 0.071	1.021 ± 0.009	1 ± 0.02
SUM44 BREAST	0.967 ± 0.033	0.959 ± 0.021	0.995 ± 0.042	0.992 ± 0.017	1.01 ± 0.033	1.02 ± 0.028	0.852 ± 0.031	0.748 ± 0.037	0.96 ± 0.028	0.915 ± 0.056	1.02 ± 0.03	1.04 ± 0.051	1.09 ± 0.055	1.06 ± 0.017	1.07 ± 0.084	0.964 ± 0.063
SUM149 BREAST	0.981 ± 0.06	0.972 ± 0.14	1.02 ± 0.13	0.392 ± 0.03	1.06 ± 0.092	0.836 ± 0.052	0.424 ± 0.042	0.356 ± 0.01	1.03 ± 0.098	1.12 ± 0.052	1.18 ± 0.053	1.15 ± 0.085	1.08 ± 0.075	1.13 ± 0.11	1.04 ± 0.047	1.01 ± 0.092
SUM149.B1*.S BREAST	1.02 ± 0.052	0.884 ± 0.057	0.955 ± 0.016	0.609 ± 0.014	0.982 ± 0.051	0.768 ± 0.032	0.3677 ± 0.0023	0.294 ± 0.016	1.03 ± 0.045	1.07 ± 0.0015	1.05 ± 0.011	1.07 ± 0.022	1.13 ± 0.037	1.12 ± 0.017	1.14 ± 0.024	1.11 ± 0.04
SUM159 BREAST	0.979 ± 0.033	0.92 ± 0.13	0.865 ± 0.25	0.934 ± 0.12	0.648 ± 0.14	0.475 ± 0.18	0.32 ± 0.088	0.268 ± 0.092	1.07 ± 0.059	1.05 ± 0.04	0.982 ± 0.076	0.991 ± 0.041	1.03 ± 0.027	0.998 ± 0.08	0.946 ± 0.17	0.916 ± 0.25
SYO1 SYNOVIAL	0.905 ± 0.038	0.832 ± 0.089	0.876 ± 0.056	0.475 ± 0.14	0.949 ± 0.04	0.804 ± 0.1	0.293 ± 0.02	0.117 ± 0.028	1.01 ± 0.039	0.997 ± 0.038	0.993 ± 0.019	0.979 ± 0.036	0.977 ± 0.042	0.934 ± 0.048	0.588 ± 0.026	0.468 ± 0.012
T47D BREAST	1 ± 0.034	1.017 ± 0.0096	0.983 ± 0.04	0.898 ± 0.047	1.07 ± 0.015	1.07 ± 0.046	0.891 ± 0.041	0.631 ± 0.018	1.01 ± 0.029	0.993 ± 0.019	0.992 ± 0.043	1.01 ± 0.051	1.07 ± 0.029	1.08 ± 0.033	0.965 ± 0.075	0.937 ± 0.024
U2OS BONE	1.01 ± 0.022	1.02 ± 0.04	1.01 ± 0.016	1.015 ± 0.0081	1.06 ± 0.019	1.04 ± 0.029	0.783 ± 0.024	0.538 ± 0.035	1.02 ± 0.037	1.05 ± 0.037	1.04 ± 0.039	1.02 ± 0.049	1.04 ± 0.023	1.04 ± 0.028	0.974 ± 0.022	0.897 ± 0.036
VCAP PROSTATE	1.07 ± 0.18	1.04 ± 0.12	1.09 ± 0.074	1.14 ± 0.053	1.08 ± 0.13	1.04 ± 0.023	0.245 ± 0.044	0.144 ± 0.0072	1.03 ± 0.066	1.13 ± 0.049	1.17 ± 0.088	1.25 ± 0.2	1.18 ± 0.24	1.18 ± 0.023	1.03 ± 0.14	1.11 ± 0.027
VP229 BREAST	0.949 ± 0.074	0.907 ± 0.022	1.04 ± 0.15	0.891 ± 0.12	0.831 ± 0.14	0.52 ± 0.021	0.139 ± 0.017	0.133 ± 0.015	1.16 ± 0.12	1.08 ± 0.21	1.21 ± 0.029	0.944 ± 0.17	0.972 ± 0.065	1.04 ± 0.082	1.13 ± 0.09	0.975 ± 0.037
YAMATO SYNOVIAL	1.11 ± 0.044	0.733 ± 0.042	0.984 ± 0.046	0.216 ± 0.0092	1.05 ± 0.08	0.655 ± 0.029	0.359 ± 0.013	0.133 ± 0.013	1.42 ± 0.029	1.32 ± 0.13	1.43 ± 0.1	1.36 ± 0.1	1.5 ± 0.061	1.41 ± 0.15	1.4 ± 0.086	1.27 ± 0.13
ZR751 BREAST	1.05 ± 0.086	1.01 ± 0.11	0.992 ± 0.14	1.03 ± 0.092	1.17 ± 0.15	0.787 ± 0.089	0.408 ± 0.055	0.289 ± 0.024	1.26 ± 0.29	1.24 ± 0.11	1.02 ± 0.18	1.1 ± 0.011	1.11 ± 0.054	1.08 ± 0.23	0.786 ± 0.083	0.747 ± 0.024

Source: the supplement of paper PMC6045584
